# Experimental data from patent US11051515B2, “3-acyl-benzamides and their use as herbicides” (Bayer Aktiengesellschaft, priority 2017, dated 2021).
# What was measured:
# MATIN = test: Pre-emergence action against MATIN; assay type: in vivo, Matricaria inodora; details: for pest or weed control at 320 g/ha: Tripleurospermum inodorum, 504 h, Dosage 320 g/ha, pre-emergence
# Outline: (§1)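 Seeds sown in sandy loam in wood-fiber pots and covered with soil. Greenhouse growth; visual damage scored after 3 weeks versus untreated controls (100% = dead, 0% = like control).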
# VIOTR = test: Post-emergence action against VIOTR; assay type: in vivo, Viola tricolor; details: for pest or weed control at 80 g/ha: Viola tricolor, 504 h, post-emergence, dosage 80 g/ha
# Outline: (§2)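 Post-emergence foliar spray on greenhouse plants at the one-leaf stage, using wettable-powder or emulsion-concentrate formulations in water (600 to […], plus 0.2% wetting agent). Damage scored by eye roughly 3 weeks later against untreated plants: 0% = like control, 100% = dead.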
# PHBPU = test: Pre-emergence action against PHBPU; assay type: in vivo, Pharbitis purpurea; details: for pest or weed control at 320 g/ha: Ipomoea purpurea, 504 h, Dosage 320 g/ha, pre-emergence
# Outline: as §1
# ABUTH = test: Pre-emergence action against ABUTH; assay type: in vivo, Abutilon theophrasti; details: for pest or weed control at 320 g/ha: Abutilon theophrasti, 504 h, pre-emergence, dosage 320 g/ha, scored visually after 3 weeks vs untreated controls, read-out: Pre-emergence action against ABUTH (herbicidal activity)
# Outline: as §1
# STEME = test: Pre-emergence action against STEME; assay type: in vivo, Stellaria media; details: Stellaria media, 504 h; Dosage 320 g/ha, pre-emergence
# Outline: as §1
# AMARE = test: Pre-emergence action against AMARE; assay type: in vivo, Amaranthus retroflexus; details: for pest or weed control at 320 g/ha: Amaranthus retroflexus, 504 h, pre-emergence, dosage 320 g/ha, scored visually after 3 weeks vs untreated controls, read-out: Pre-emergence action against AMARE (herbicidal activity)
# Outline: as §1
# ALOMY = test: Pre-emergence action against ALOMY; assay type: in vivo, Alopecurus myosuroides; details: for pest or weed control at 320 g/ha: Alopecurus myosuroides, 504 h, dosage 320 g/ha, pre-emergence, scored visually after 3 weeks vs untreated controls, 100% = plants have died, 0% = like control plants, read-out: Pre-emergence action against ALOMY (herbicidal activity in percent)
# Outline: as §1
# LOLMU [1] = test: Post-emergence action against LOLMU; assay type: in vivo, Lolium multiflorum; details: Lolium multiflorum, 504 h, dosage 80 g/ha, visual assessment about 3 weeks after treatment vs untreated controls, read-out: Post-emergence action against LOLMU (herbicidal action in percent)
# Outline: as §2
# HORMU [2] = test: Post-emergence action against HORMU; assay type: in vivo, Hordeum murinum; details: dosage 80 g/ha
# Description: Seeds of monocotyledonous and dicotyledonous weed and crop plants are laid out in sandy loam soil in wood-fiber pots, covered with soil and cultivated in a greenhouse under good growth conditions. 2 to 3 weeks after sowing, the test plants are treated at the one-leaf stage. The compounds of the invention, formulated in the form of wettable powders (WP) or as emulsion concentrates (EC), are then sprayed onto the green parts of the plants in the form of an aqueous suspension or emulsion at a water application rate equating to […], with addition of 0.2% wetting agent. After the test plants have been left to stand in the greenhouse under optimal growth conditions for about 3 weeks, the action of the preparations is assessed visually in comparison to untreated controls (herbicidal action in percent (%): 100% activity=the plants have died, 0% activity=like control plants). […] At the same time, inventive compounds leave Gramineae crops such as barley, wheat, rye, millet/Sorghum, corn or rice virtually undamaged when applied post-emergence, even at high active ingredient dosages. In addition, some substances are also harmless to dicotyledonous crops such as soya, cotton, oilseed rape, sugar beet or potatoes. Some of the compounds according to the invention have high selectivity and are therefore suitable for controlling unwanted vegetation in agricultural crops by the post-emergence method. The data of Tables B18 to B34 below illustrate, in an exemplary manner, the […] herbicidal action of the compounds according to the invention, the herbicidal activity being stated in percent.
# LOLRI [3] = test: Pre-emergence action against LOLRI; assay type: in vivo, Lolium rigidum; details: Lolium rigidum, 504 h, dosage 320 g/ha, scored visually after 3 weeks vs untreated controls, read-out: Pre-emergence action against LOLRI (herbicidal activity)
# Outline: as §1
# LOLRI [4] = test: Post-emergence action against LOLRI; assay type: in vivo, Lolium rigidum; details: Lolium rigidum, 504 h, dosage 80 g/ha, visual assessment about 3 weeks after treatment vs untreated controls, read-out: Post-emergence action against LOLRI (herbicidal action in percent)
# Outline: as §2
# HORMU [5] = test: Pre-emergence action against HORMU; assay type: in vivo, Hordeum murinum; details: Hordeum murinum, 504 h, Dosage 320 g/ha
# Outline: as §1
# LOLMU [6] = test: Pre-emergence action against LOLMU; assay type: in vivo, Lolium multiflorum; details: Lolium multiflorum, 504 h, dosage 320 g/ha, scored visually after 3 weeks vs untreated controls, read-out: Pre-emergence action against LOLMU (herbicidal activity)
# Outline: as §1
# [7] = Table V7, pre-emergence, 20 g of a.i./ha
# [8] = Table V2, pre-emergence, 20 g of a.i./ha
# [9] = Table V3, pre-emergence, 80 g of a.i./ha
Structure (SMILES),pest or weed control at 320 g/ha (MATIN) [%],pest or weed control at 80 g/ha (VIOTR) [%],pest or weed control at 320 g/ha (ABUTH) [%],pest or weed control at 320 g/ha (STEME) [%],pest or weed control at 320 g/ha (AMARE) [%],pest or weed control at 320 g/ha (ALOMY) [%],pest or weed control at 80 g/ha (LOLMU [1]) [%],pest or weed control at 320 g/ha (PHBPU) [%],pest or weed control at 320 g/ha (LOLMU [6]) [%],other results
Cc1c(C(=O)Nc2nnnn2C)ccc(S(C)(=O)=O)c1C(=O)C1CC1 [1-9],100,100,100,80,100,90,90,–,–,"Herbicidal efficacy against MATIN (MATIN; [7]): 90; Herbicidal efficacy against VIOTR (VIOTR; Table V17, post-emergence, 5 g of a.i./ha): 100; Herbicidal efficacy against PHBPU (PHBPU; Table V6, pre-emergence, 80 g of a.i./ha): 60; Herbicidal efficacy against ABUTH (ABUTH; [7]): 100"
"CCn1nnnc1NC(=O)c1ccc(C(F)(F)F)c(C(=O)C2CC2)c1C [2-18, 3-(cyclopropylcarbonyl)-N-(1-ethyl-1H-tetrazol-5-yl)-2-methyl-4-(trifluoromethyl)benzamide]",100,100,100,90,100,100,–,90,–,Post-emergence action against HORMU (HORMU [2]): 100; pest or weed control at 320 g/ha (LOLRI [3]): 100%; pest or weed control at 80 g/ha (LOLRI [4]): 100%; pest or weed control at 320 g/ha (HORMU [5]): 100%
CSc1c(C(=O)Nc2nnnn2C)ccc(C(F)(F)F)c1C(C)=O [1-58],100,100,100,100,100,100,80,100,90,–
Cn1nnnc1NC(=O)c1ccc(C(F)(F)F)c(C(=O)C2CC2)c1Cl [1-141],100,100,100,100,100,100,100,100,100,–
Cn1nnnc1NC(=O)c1ccc(S(C)(=O)=O)c(C(=O)C2CC2)c1Cl [1-129],100,100,100,100,100,100,80,100,100,MATIN (MATIN; [8]): 90; Herbicidal efficacy against MATIN (MATIN; [9]): 100; Herbicidal efficacy against ABUTH (ABUTH; [9]): 100; AMARE (AMARE; [8]): 90; Herbicidal efficacy against AMARE (AMARE; [9]): 100; Herbicidal efficacy against ALOMY (ALOMY; [9]): 100
COc1c(C(=O)Nc2nnnn2C)ccc(C(F)(F)F)c1C(=O)C1CC1 [1-50],100,100,100,100,100,100,90,100,100,–
